Measurements published in patent US11970515B1, “Crystal form of Brassinosteroid (BR) analogue, and preparation method and use thereof” (CHENGDU NEWSUN CROP SCIENCE CO., LTD., priority 2021, dated 2024).

Columns and labels:
[1] = Solubility in water; format: physicochemical; settings: different temperatures
Procedure: (§1) 2. Solubility Research • (1) 50 mg of the crystal form I and crystal form II were separately added to a test tube, slowly added with ethanol dropwise at different temperatures while conducting vibration until completely dissolved. Weighing was conducted and a total mass was recorded, converted into volume, expressed as mg/mL. The experimental results were shown in FIG. 11 and FIG. 12. • (2) 50 mg of the crystal form I and crystal form II were separately added to a test tube, slowly added with water dropwise at different temperatures while conducting vibration until completely dissolved. Weighing was conducted and a total mass was recorded, converted into volume, expressed as mg/mL.

[2] = test system: tobacco seedlings; experiment: Promoting growth of tobacco seedlings (leaf spray, leaf area growth rate); format: in vivo; settings: for Growth-promoting effect (in words): 7 d after treatment; for 7-day leaf area growth rate (%): leaf spray, 7 d
Procedure: The example of the present disclosure provided use of the novel crystal form I and the novel crystal form II in promoting plant growth, specifically an experiment of promoting growth of tobacco seedlings was taken as an example, the steps were as follows:
In the present disclosure, the novel crystal form I and the novel crystal form II each were prepared with anhydrous ethanol into a 10 mg/ml mother solution, and used immediately during the experiment.
Tobacco seedlings with a seedling age of 7 d were transplanted and planted in a cultivation room, and the seedlings were subjected to recovery for 2 d before testing. After the treatment agent was formulated according to the experimental design, the leaves of the tobacco seedlings were evenly sprayed, and each treatment was repeated 3 times, with 2 plants in each repetition, that is, 6 seedlings in each treatment. […] The RGB AREA_MM parameter (leaf area/mm^2) of the tobacco was recorded with a plant phenotype instrument before and 7 d […], and a growth rate of the leaf area was calculated to evaluate a growth-promoting effect of the drug. The formula for calculating a leaf area growth rate was as follows: Growth rate (%)=(final leaf area−initial leaf area)×100%/initial leaf area

[3] = Solubility in ethanol; format: physicochemical; settings: different temperatures
Procedure: as §1

[4] = Stability test of crystal forms in high-temperature environment at 80° C.±2° C.; format: physicochemical
Procedure: Appropriate amounts of the crystal form I and crystal form II were separately placed in a high-temperature environment at 80° C.±2° C. for stability experiments, and the experimental results were shown in Table 1.

[5] = test system: tobacco seedlings; experiment: Promoting cold resistance of tobacco (chlorophyll fluorescence after 4° C. cold injury); format: in vivo
Procedure: The example of the present disclosure provided use of the novel crystal form II in promoting stress resistance of plants, specifically an experiment of promoting cold resistance of tobacco was taken as an example, the steps were as follows:
In the present disclosure, the novel crystal form II was prepared with anhydrous ethanol into a 10 mg/ml mother solution, and used immediately during the experiment.
After the treatment agents were prepared according to Table 6, the leaves of the tobacco seedlings were evenly sprayed in the morning. […] After 1 d of recovery, cold injury (4° C.) treatment was conducted, while other conditions remained the same as those during normal culture. The chlorophyll fluorescence QY-max parameter (theoretical maximum photosynthetic capacity) and Fv/Fm (maximum photon yield of PSII) of tobacco were recorded before drug treatment, after 6 h and 24 h of low-temperature treatment, and after 24 h of recovery at room temperature (25° C.) separately with a plant phenotype instrument.
QY-max represents the theoretical maximum photosynthetic capacity of plants, and the smaller its reduction rate, the better the plant's low-temperature resistance. Fv/Fm-lss represents the maximum photon yield of PSII, similar to QY-max, the smaller its reduction rate, the better the plant's low-temperature resistance. […] Afterwards, each treatment was placed at room temperature (25° C.) for recovery.

[6] = test system: corn seeds; experiment: Immersing corn seeds to promote germination and growth of corn; format: in vivo; settings: for Bud vigor index / Root vigor index / Germination rate (%): 7th day; for Germination rate (%): seeds immersed 24 h
Procedure: The example of the present disclosure provided use of the novel crystal form I and the novel crystal form II in promoting plant growth, specifically an experiment of immersing corn seeds to promote germination and growth of corn was taken as an example, the steps were as follows:
In the present disclosure, the novel crystal form I was prepared with anhydrous ethanol into a 10 mg/ml mother solution, and used immediately during the experiment.
The agents were prepared according to the experimental design. 20 normal plump corn seeds were selected, placed in the agent, and immersed at 26° C. for 24 h. The seeds were washed with water, placed in a culture box and placed in a constant-temperature incubator for germination. The germination was conducted in 2 periods: 14 h of light illumination, at 28° C.; 10 h in the dark, at 25° C., and for 7 d. Each treatment was repeated 3 times. During the whole experiment, 5 ml of water was regularly added with a pipette at 9:00 every day to keep the culture box moist. After 7 days, the germination rate was counted, the shoot length and root length were measured, and the root vigor and shoot vigor were calculated. Germination rate=germinated number of seeds treated on 7th day/total number of treated seeds×100%; Bud vigor index=germination rate of 7th day×seedling bud length of 7th day; Root vigor index=germination rate of 7th day×seedling root length of 7th day.

[7] = 0.003 ppm, low-temperature (4° C.) treatment for 6 h
[8] = 0.003 ppm, low-temperature (4° C.) treatment for 24 h
[9] = 0.003 ppm, room-temperature (25° C.) recovery for 24 h
[10] = 0.03 ppm, low-temperature (4° C.) treatment for 6 h
[11] = 0.03 ppm, low-temperature (4° C.) treatment for 24 h
[12] = 0.03 ppm, room-temperature (25° C.) recovery for 24 h
[13] = 0.3 ppm, low-temperature (4° C.) treatment for 6 h
[14] = 0.3 ppm, low-temperature (4° C.) treatment for 24 h
[15] = 0.3 ppm, room-temperature (25° C.) recovery for 24 h

In the case of CC(C)(O)CC[C@@H](O)[C@](C)(O)C1CC[C@@]2(O)[C@H]3CC(=O)[C@@H]4C[C@@H](O)[C@@H](O)C[C@]4(C)[C@H]3CC[C@]12C (single isomer, unassigned) [Novel crystal form II], the “Solubility in water (in words)” value [1] is reported as “desirable solubility”, the “Growth-promoting effect (in words)” value ([2]; 0.003 ppm) is reported as “obvious growth-promoting effects” and the “7-day leaf area growth rate (%)” value ([2]; 0.003 ppm) is reported as 169.02 ± 0.26%. The “7-day leaf area growth rate (%)” value ([2]; 0.03 ppm) was 153.44 ± 0.19%, the “7-day leaf area growth rate (%)” value ([2]; 0.3 ppm) was 150.31 ± 0.39% and the “Solubility in ethanol (in words)” value [3] was “desirable solubility”. The “Stability in high-temperature environment (in words)” value [4] was “highly stable in the high-temperature environment, and no crystal form change occurred”, the “Content (%)” value ([4]; test time 0 d) was 99.87% and the “Content of other substances (%)” value ([4]; test time 0 d) was 0.13%. For the same molecule, the XRPD ([4]; test time 0 d) was “Unchanged”, the “Content (%)” value ([4]; test time 5 d) was 99.84% and the “Content of other substances (%)” value ([4]; test time 5 d) was 0.16%. The XRPD ([4]; test time 5 d) was “Unchanged”, the “Content (%)” value ([4]; test time 10 d) was 99.87% and the “Content of other substances (%)” value ([4]; test time 10 d) was 0.13%. The XRPD ([4]; test time 10 d) was “Unchanged”, the “Fv/Fm-lss change rate (%)” value [5, 7] was −30.1 ± 0.22% and the “QY-max change rate (%)” value [5, 7] was −10.4 ± 0.13%. For the same molecule, the “Fv/Fm-lss change rate (%)” value [5, 8] was −46.1 ± 0.28%, the “QY-max change rate (%)” value [5, 8] was −31.0 ± 0.18% and the “Fv/Fm-lss change rate (%)” value [5, 9] was −16.2 ± 0.27%. The “QY-max change rate (%)” value [5, 9] was −10.0 ± 0.24%, the “Reduction rate of QY-max and Fv/Fm-lss versus water control (in words)” value ([5]; 0.03 ppm, after 6 h of low-temperature treatment) was “significantly lower than that of the water control” and the “Recovery effect, comparison of concentrations (in words)” value ([5]; 0.03 ppm, after 24 h of recovery at room temperature) was “the best”. The “Fv/Fm-lss change rate (%)” value [5, 10] was −14.3 ± 0.13%, the “QY-max change rate (%)” value [5, 10] was −3.6 ± 0.33% and the “Fv/Fm-lss change rate (%)” value [5, 11] was −33.4 ± 0.12%. The “QY-max change rate (%)” value [5, 11] was −27.6 ± 0.16%, the “Fv/Fm-lss change rate (%)” value [5, 12] was 0.3 ± 0.16% and the “QY-max change rate (%)” value [5, 12] was −0.6 ± 0.18%. The “Fv/Fm-lss change rate (%)” value [5, 13] was −26.4 ± 0.27%, the “QY-max change rate (%)” value [5, 13] was −7.9 ± 0.25% and the “Fv/Fm-lss change rate (%)” value [5, 14] was −44.4 ± 0.25%. For the same molecule, the “QY-max change rate (%)” value [5, 14] was −30.0 ± 0.27%, the “Fv/Fm-lss change rate (%)” value [5, 15] was −4.5 ± 0.21% and the “QY-max change rate (%)” value [5, 15] was −5.2 ± 0.13%. For the same molecule, the “Recovery effect versus clean water control (in words)” value ([5]; each concentration, after 24 h of recovery at room temperature) was “better than that of the clean water control” and the “Low-temperature resistance, summary (in words)” value ([5]; in vivo) was “bioactivity of anti-low temperature”.
For CC(C)(O)CC[C@@H](O)[C@](C)(O)C1CC[C@@]2(O)[C@H]3CC(=O)[C@@H]4C[C@@H](O)[C@@H](O)C[C@]4(C)[C@H]3CC[C@]12C (single isomer, unassigned) [Novel crystal form I], the “Solubility in water (in words)” value [1] was “desirable solubility”, the Bud vigor index ([6]; 0.003 ppm) was 7.77 ± 0.36 and the Root vigor index ([6]; 0.003 ppm) was 8.80 ± 0.29. For the same molecule, the “Germination rate (%)” value ([6]; 0.003 ppm) was 72.12 ± 1.15%, the “Effect on root and bud vigor indexes versus control CK (in words)” value ([6]; 0.03 ppm) was “best effect, which was obviously better than that of the control CK” and the “Germination effect on corn compared with the water control (in words)” value ([6]; 0.03 ppm) was “germination-promoting effect”. For the same molecule, the Bud vigor index ([6]; 0.03 ppm) was 10.93 ± 0.17, the Root vigor index ([6]; 0.03 ppm) was 10.89 ± 0.24 and the “Germination rate (%)” value ([6]; 0.03 ppm) was 77.34 ± 1.99%. For the same molecule, the Bud vigor index ([6]; 0.3 ppm) was 9.26 ± 0.24, the Root vigor index ([6]; 0.3 ppm) was 9.77 ± 0.53 and the “Germination rate (%)” value ([6]; 0.3 ppm) was 75.38 ± 2.37%. For the same molecule, the “Effect on root and bud vigor indexes (in words)” value ([6]; in vivo) was “effect of improving the root vigor index and bud vigor index”, the “Growth-promoting effect (in words)” value ([2]; 0.003 ppm) was “obvious growth-promoting effects” and the “7-day leaf area growth rate (%)” value ([2]; 0.003 ppm) was 179.02 ± 0.15%. For the same molecule, the “7-day leaf area growth rate (%)” value ([2]; 0.03 ppm) was 166.45 ± 0.18%, the “7-day leaf area growth rate (%)” value ([2]; 0.3 ppm) was 145.98 ± 0.39% and the “Solubility in ethanol (in words)” value [3] was “desirable solubility”. For the same molecule, the “Stability in high-temperature environment (in words)” value [4] was “highly stable in the high-temperature environment, and no crystal form change occurred”, the “Content (%)” value ([4]; test time 0 d) was 99.98% and the “Content of other substances (%)” value ([4]; test time 0 d) was 0.02%. For the same molecule, the XRPD ([4]; test time 0 d) was “Unchanged”, the “Content (%)” value ([4]; test time 5 d) was 99.93% and the “Content of other substances (%)” value ([4]; test time 5 d) was 0.07%. For the same molecule, the XRPD ([4]; test time 5 d) was “Unchanged”, the “Content (%)” value ([4]; test time 10 d) was 99.96% and the “Content of other substances (%)” value ([4]; test time 10 d) was 0.04%. The XRPD ([4]; test time 10 d) was “Unchanged”.
